The values that follow come from PubChem BioAssay (NCI).

Values joined by “and” are separate entries in the source; they are usually repeats but may differ in a detail not shown here. Equal entries are not always repeated.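 In this assay, cells in 96-well plates receive the compound at five concentrations for 48 hours. Endpoints are linearly interpolated between the surrounding concentrations. GI50 marks 50% less growth. Definition used: TGI = concentration required for complete inhibition of growth.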

Among the test systems are COLO 205 colon; MCF7 breast; NCI-H522 lung; CCRF-CEM leukemia; NCI-H23 lung; SNB-19 CNS; HS 578T breast; HT29 colon; M14 melanoma; HOP-92 NSCLC.
Common to all, as to assay: NCI-60 cell line screen, 48 h

On to `COc1cccc(/C=C/[N+](=O)[O-])c1`, for which the GI50 in the assay on COLO 205 colon was 1.86 µM; in the assay with MCF7 breast, 1.2 µM; in the assay with NCI-H522 lung, 11.1 µM; in the assay on CCRF-CEM leukemia, 2.8 µM; in the assay on NCI-H23 lung, 3.21 µM; with SNB-19 CNS it was 16.5 µM. Further, the GI50 in the assay on HS 578T breast was 15.8 µM; in the assay on HT29 colon it was 1.92 µM; with M14 melanoma, 2.01 µM; in the assay on HOP-92 NSCLC, 15.9 µM. Also, the TGI was 3.54 µM in the assay on COLO 205 colon; 3.93 µM in the assay with MCF7 breast; 23.5 µM in the assay with NCI-H522 lung; 7.32 µM with CCRF-CEM leukemia; 12.6 µM in the assay on NCI-H23 lung; 37 µM in the assay with SNB-19 CNS. Further, the TGI with HS 578T breast amounted to 55.5 µM; in the assay on HT29 colon, 4.48 µM; in the assay on M14 melanoma, 4.63 µM; in the assay on HOP-92 NSCLC, 34.6 µM.

As to `O=C(O)c1ccc(Oc2nccc(-c3c(-c4ccc(F)cc4)ncn3C3CCNCC3)n2)cc1`, the GI50 with COLO 205 colon, in the assay with MCF7 breast, in the assay on NCI-H522 lung, in the assay with SNB-19 CNS, in the assay with HS 578T breast and in the assay with HT29 colon was > 25 µM in each case. In the assay with M14 melanoma, the GI50 is > 25 µM. Besides, the TGI in the assay on COLO 205 colon, in the assay with MCF7 breast, with NCI-H522 lung, with SNB-19 CNS, in the assay on HS 578T breast and in the assay on HT29 colon was > 25 µM throughout. For the same molecule, in the assay with M14 melanoma, the TGI was > 25 µM.

For the molecule `CNC/C(Cl)=N/S(=O)(=O)c1ccc(C)cc1`, the TGI is 38.2 µM in the assay on COLO 205 colon; 23.7 µM in the assay with MCF7 breast; 24.9 µM in the assay with NCI-H522 lung; 26.2 µM with NCI-H23 lung; 68.2 µM in the assay on SNB-19 CNS; > 100 µM in the assay with HS 578T breast. The figures for the TGI in the assay with HT29 colon, in the assay on M14 melanoma and in the assay on HOP-92 NSCLC were 60.4 µM, 39.7 µM and 51.1 µM, respectively.

`CCOC(=O)NC1C2CC(=O)OC(O2)C1OC(C)=O` (stereo not given): the TGI in the assay on COLO 205 colon, in the assay with MCF7 breast, in the assay on NCI-H522 lung, in the assay with CCRF-CEM leukemia, in the assay with NCI-H23 lung and in the assay with SNB-19 CNS was > 100 µM throughout. The TGI in the assay with HS 578T breast, in the assay on HT29 colon, in the assay on M14 melanoma and with HOP-92 NSCLC was > 100 µM each time. Also, the GI50 with MCF7 breast and with HS 578T breast was > 100 µM each time.

`N#CC1=C(N)Oc2c(ccc3ccccc23)C1c1ccccc1` (stereo not given): the GI50 is 0.19 µM in the assay on COLO 205 colon; 0.0393 µM in the assay with MCF7 breast; 0.0226 µM in the assay with NCI-H522 lung; 0.0437 µM in the assay with CCRF-CEM leukemia; 0.0648 µM in the assay with NCI-H23 lung; 0.0579 µM in the assay on SNB-19 CNS. Also, the GI50 with HS 578T breast was 0.0316 µM; in the assay on HT29 colon, 0.146 µM; in the assay on M14 melanoma, 0.0348 µM; in the assay on HOP-92 NSCLC it was 0.0413 µM. Moreover, the TGI with COLO 205 colon was 1.23 µM; with MCF7 breast it was 15.6 µM; in the assay with NCI-H522 lung, 1.7 µM; in the assay with CCRF-CEM leukemia, 41.5 µM; in the assay with NCI-H23 lung, 16.9 µM; with SNB-19 CNS, 18.1 µM. Further, the TGI came out at 21.3 µM in the assay on HS 578T breast, 11.1 µM with HT29 colon, 13.6 µM in the assay with M14 melanoma and 12.9 µM with HOP-92 NSCLC.

Consider `O=C1NC(=O)C(c2ccccc2Cl)=C1Nc1cc(Cl)c(O)c(Cl)c1`, for which the GI50 in the assay with COLO 205 colon was > 18.1 µM; in the assay on MCF7 breast, > 13.8 µM; in the assay on NCI-H522 lung, 8.78 µM; in the assay on SNB-19 CNS, > 25 µM; in the assay with HS 578T breast, 10.9 µM; with HT29 colon it was 14.2 µM. Further, the GI50 in the assay with M14 melanoma was > 19.5 µM. For the same molecule, the TGI with COLO 205 colon, in the assay on MCF7 breast, in the assay on NCI-H522 lung, in the assay with SNB-19 CNS, with HS 578T breast and in the assay on HT29 colon was > 25 µM each time. Besides, in the assay on M14 melanoma, the TGI was > 25 µM.

As to `C[C@]12CC[C@H](OC3OC(CO)C(O)C(O)C3O)C[C@H]1CC[C@@H]1[C@@H]2CC[C@]2(C)[C@@H](C3=CCOC3=O)CC[C@]12O` (stereo not given in full), the GI50 is > 100 µM with COLO 205 colon; > 100 µM in the assay with MCF7 breast; 74.9 µM and 10.1 µM in the assay with NCI-H522 lung; 23.4 µM and > 100 µM in the assay on CCRF-CEM leukemia; > 100 µM in the assay with NCI-H23 lung; 23.4 µM and > 100 µM in the assay on SNB-19 CNS. For the same molecule, the GI50 in the assay on HT29 colon and in the assay on HOP-92 NSCLC was > 100 µM throughout. Moreover, the TGI with COLO 205 colon is 50 µM and > 100 µM; in the assay with MCF7 breast it was 47.2 µM and > 100 µM; in the assay with NCI-H522 lung, 50 µM and > 100 µM; in the assay on CCRF-CEM leukemia, 50 µM and > 100 µM; in the assay on NCI-H23 lung, 50 µM and > 100 µM; in the assay with SNB-19 CNS, 50 µM and > 100 µM. In addition, the TGI in the assay on HS 578T breast was > 100 µM; in the assay on HT29 colon, 50 µM and > 100 µM; in the assay with M14 melanoma it was > 100 µM; with HOP-92 NSCLC it was 31.1 µM and > 100 µM.

Take `COc1ccc(-c2cc(-c3cccn3C)c(C#N)c(=O)[nH]2)cc1OC`: the GI50 was > 100 µM in the assay with COLO 205 colon; > 100 µM in the assay on MCF7 breast; > 100 µM in the assay on NCI-H522 lung; 5.02 µM in the assay on CCRF-CEM leukemia; > 100 µM in the assay on NCI-H23 lung; > 100 µM with SNB-19 CNS. Moreover, the figures for the GI50 in the assay with HS 578T breast, with HT29 colon and in the assay with HOP-92 NSCLC were > 100 µM, > 100 µM and 0.0508 µM, respectively. Besides, the TGI with COLO 205 colon, with MCF7 breast, with NCI-H522 lung, in the assay with CCRF-CEM leukemia, with NCI-H23 lung and with SNB-19 CNS was > 100 µM throughout. Besides, the TGI is > 100 µM in the assay on HS 578T breast, > 100 µM in the assay with HT29 colon and 9.8 µM with HOP-92 NSCLC.
